# Data from patent US10123993B2, “Cyclic ureas as inhibitors of rock” (BRISTOL-MYERS SQUIBB COMPANY, priority 2015, dated 2018).
# Biological target: ROCK2 (Homo sapiens, UniProt O75116)
# Experiment: ROCK2 kinase inhibition assay (Caliper LABCHIP, FITC peptide substrate)
# Assay type: biochemical
# Details: 5 μM ATP, 1.5 μM peptide substrate; value ranges
# Protocol: The effectiveness of compounds of the present invention as ROCK inhibitors can be determined in a 30 μL assay containing 20 mM HEPES, pH 7.5, 20 mM MgCl2, 0.015% Brij-35, 4 mM DTT, 5 μM ATP and 1.5 μM peptide substrate (FITC-AHA-AKRRRLSSLRA-OH). Compounds were dissolved in DMSO so that the final concentration of DMSO was <2%, and the reaction was initiated with Rho kinase variants. After incubation, the reaction was terminated by the addition of EDTA and the phosphorylated and non-phosphorylated peptides separated using a LABCHIP® 3000 Reader (Caliper Life Sciences). […] Compounds were tested in dose-response format, and the inhibition of kinase activity was calculated at each concentration of compound. The inhibition data were fit using a curve-fitting program to determine the IC50; i.e., the concentration of compound required to inhibit 50% of kinase activity.
# Representative Examples were tested in the ROCK2 assay described above and found having ROCK inhibitory activity.
# Sequence of ROCK2 (O75116 whole entry, species assumed): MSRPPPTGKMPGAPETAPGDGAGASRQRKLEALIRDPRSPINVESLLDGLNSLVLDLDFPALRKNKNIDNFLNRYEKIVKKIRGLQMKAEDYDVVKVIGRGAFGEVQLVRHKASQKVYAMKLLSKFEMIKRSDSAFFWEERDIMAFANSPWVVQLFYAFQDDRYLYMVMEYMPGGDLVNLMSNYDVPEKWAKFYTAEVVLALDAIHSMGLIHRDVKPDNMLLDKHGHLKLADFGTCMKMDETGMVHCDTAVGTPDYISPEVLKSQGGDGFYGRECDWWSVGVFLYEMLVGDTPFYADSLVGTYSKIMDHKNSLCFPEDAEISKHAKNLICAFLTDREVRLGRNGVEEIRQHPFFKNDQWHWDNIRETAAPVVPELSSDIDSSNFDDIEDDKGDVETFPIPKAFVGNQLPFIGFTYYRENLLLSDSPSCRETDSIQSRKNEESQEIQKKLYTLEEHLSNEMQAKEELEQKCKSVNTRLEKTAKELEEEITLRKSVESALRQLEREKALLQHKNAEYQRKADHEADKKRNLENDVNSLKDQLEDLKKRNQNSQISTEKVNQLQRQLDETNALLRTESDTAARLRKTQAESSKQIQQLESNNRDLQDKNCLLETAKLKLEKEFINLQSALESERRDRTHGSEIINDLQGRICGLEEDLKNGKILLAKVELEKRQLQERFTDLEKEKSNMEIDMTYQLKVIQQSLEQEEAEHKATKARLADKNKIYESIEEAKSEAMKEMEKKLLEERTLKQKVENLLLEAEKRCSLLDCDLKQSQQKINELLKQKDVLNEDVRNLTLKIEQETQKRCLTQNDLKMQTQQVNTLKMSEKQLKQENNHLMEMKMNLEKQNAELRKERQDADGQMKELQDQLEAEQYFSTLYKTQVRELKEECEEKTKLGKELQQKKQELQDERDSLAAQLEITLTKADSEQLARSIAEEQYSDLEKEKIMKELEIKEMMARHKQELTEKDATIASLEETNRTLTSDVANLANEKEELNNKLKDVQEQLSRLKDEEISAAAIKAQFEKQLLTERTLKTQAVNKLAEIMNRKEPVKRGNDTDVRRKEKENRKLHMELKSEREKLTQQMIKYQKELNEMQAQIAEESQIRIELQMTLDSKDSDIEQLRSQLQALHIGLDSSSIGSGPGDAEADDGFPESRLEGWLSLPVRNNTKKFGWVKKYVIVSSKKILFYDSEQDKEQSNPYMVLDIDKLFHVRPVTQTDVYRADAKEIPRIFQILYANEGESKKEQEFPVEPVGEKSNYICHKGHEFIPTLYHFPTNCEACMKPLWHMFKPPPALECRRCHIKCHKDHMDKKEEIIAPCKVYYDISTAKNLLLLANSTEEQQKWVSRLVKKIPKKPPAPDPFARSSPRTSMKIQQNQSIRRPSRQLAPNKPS
row,SMILES,IC50 [nM]
1,"COc1cccc(C(C(=O)NCC(C)C)N2CCN(c3ccc(-c4cn[nH]c4)cc3)C2=O)c1 (single isomer, unassigned) [Example 293, 2-(3-(4-(1H-pyrazol-4-yl)phenyl)-2-oxoimidazolidin-1-yl)-N-isobutyl-2-(3-methoxyphenyl)acetamide]",200 to 2000
2,"COc1cccc(C(C(=O)NCC2CC2)N2CCN(c3ccc(-c4cn[nH]c4)cc3)C2=O)c1 (single isomer, unassigned) [Example 297, 2-(3-(4-(1H-pyrazol-4-yl)phenyl)-2-oxoimidazolidin-1-yl)-N-(cyclopropylmethyl)-2-(3-methoxyphenyl)acetamide]",200 to 2000
3,"COc1cccc(C(C(=O)NC2CC2)N2CCN(c3ccc(-c4cn[nH]c4)cc3)C2=O)c1 (single isomer, unassigned) [Example 300, 2-(3-(4-(1H-pyrazol-4-yl)phenyl)-2-oxoimidazolidin-1-yl)-N-cyclopropyl-2-(3-methoxyphenyl)acetamide]",20.1 to 200
4,"COc1cccc(C(C(=O)NCC(C)(C)O)N2CCN(c3ccc(-c4cn[nH]c4)cc3)C2=O)c1 (single isomer, unassigned) [Example 303, 2-(3-(4-(1H-pyrazol-4-yl)phenyl)-2-oxoimidazolidin-1-yl)-N-(2-hydroxy-2-methylpropyl)-2-(3-methoxyphenyl)acetamide]",20.1 to 200
5,"CNC(=O)C(C)(c1cccc(OC)c1)N1CCN(c2ccc(-c3cn[nH]c3)cc2)C1=O (single isomer, unassigned) [Example 304, 2-(3-(4-(1H-Pyrazol-4-yl)phenyl)-2-oxoimidazolidin-1-yl)-2-(3-methoxyphenyl)-N-methylpropanamide]",200 to 2000
6,"CNCC(c1cccc(OC)c1)N1CCN(c2ccc(-c3cn[nH]c3)cc2)C1=O (single isomer, unassigned) [Example 309, 1-(4-(1H-Pyrazol-4-yl)phenyl)-3-(1-(3-methoxyphenyl)-2-(methylamino)ethyl)imidazolidin-2-one]",20.1 to 200
7,"COc1cccc(C(CO)n2ccn(-c3ccc(-c4cn[nH]c4)cc3)c2=O)c1 (single isomer, unassigned) [Example 323, 1-(4-(1H-Pyrazol-4-yl)phenyl)-3-(2-hydroxy-1-(3-methoxyphenyl)ethyl)-1H-imidazol-2(3H)-one]",200 to 2000
8,"COc1cccc(C(C)n2ccn(-c3ccc(-c4ccnc5[nH]ccc45)cc3)c2=O)c1 (single isomer, unassigned) [Example 325, 1-(4-(1H-Pyrrolo[2,3-b]pyridin-4-yl)phenyl)-3-(1-(3-methoxyphenyl)ethyl)-1H-imidazol-2(3H)-one]",20.1 to 200
9,"COc1cccc(C(C)n2ccn(-c3ccc(-c4ccnc(F)c4)cc3)c2=O)c1 (single isomer, unassigned) [Example 327, 1-(4-(2-fluoropyridin-4-yl)phenyl)-3-(1-(3-methoxyphenyl)ethyl)-1H-imidazol-2(3H)-one]",200 to 2000
10,"COc1cccc(C(C)n2ccn(-c3ccc(-c4cn[nH]c4)cc3)c2=O)c1 (single isomer, unassigned) [Example 340, 1-(4-(1H-pyrazol-4-yl)phenyl)-3-(l-(3-methoxyphenyl)ethyl)-1H-imidazol-2(3H)-one]",20.1 to 200
11,"COc1cccc(C(C)n2ccn(-c3ccc(-c4cn[nH]c4)cn3)c2=O)c1 (single isomer, unassigned) [Example 354, 1-(5-(1H-pyrazol-4-yl)pyridin-2-yl)-3-(1-(3-methoxyphenyl)ethyl)-1H-imidazol-2(3H)-one]",20.1 to 200
12,"CC(c1cccc(OCC2CC2)c1)n1ccn(-c2ccc(-c3cn[nH]c3)cc2)c1=O (single isomer, unassigned) [Example 356, 1-(4-(1H-pyrazol-4-yl)phenyl)-3-(1-(3-(cyclopropylmethoxy)phenyl)ethyl)-1H-imidazol-2(3H)-one]",200 to 2000
13,"CC(c1cccc(OCC2CC2)c1)n1ccn(-c2ccc(-c3cn[nH]c3)cc2)c1=O (single isomer, unassigned) [Example 357, 1-(4-(1H-pyrazol-4-yl)phenyl)-3-(1-(3-(cyclopropylmethoxy)phenyl)ethyl)-1H-imidazol-2(3H)-one]",20.1 to 200
14,"CCc1cc(-n2ccn(C(CO)c3cccc(OC)c3)c2=O)ccc1-c1cn[nH]c1 (single isomer, unassigned) [Example 358, 1-(3-ethyl-4-(1H-pyrazol-4-yl)phenyl)-3-(2-hydroxy-1-(3-methoxyphenyl)ethyl)-1H-imidazol-2(3H)-one]",200 to 2000
15,"CCc1cc(-n2ccn(C(CO)c3cccc(OC)c3)c2=O)ccc1-c1cn[nH]c1 (single isomer, unassigned) [Example 359, 1-(3-ethyl-4-(1H-pyrazol-4-yl)phenyl)-3-(2-hydroxy-1-(3-methoxyphenyl)ethyl)-1H-imidazol-2(3H)-one]",20.1 to 200

# Further lines, results first:
row,IC50 [nM],SMILES
1,2.1 to 20,"CCNC(=O)C(c1cccc(OC)c1)N1CCN(c2ccc(-c3cn[nH]c3)cc2)C1=O (single isomer, unassigned) [Example 289, 2-(3-(4-(1H-Pyrazol-4-yl)phenyl)-2-oxoimidazolidin-1-yl)-N-ethyl-2-(3-methoxyphenyl)acetamide]"
2,20.1 to 200,"CCNC(=O)C(c1cccc(OC)c1)N1CCN(c2ccc(-c3cn[nH]c3)cc2)C1=O (single isomer, unassigned) [Example 290, 2-(3-(4-(1H-Pyrazol-4-yl)phenyl)-2-oxoimidazolidin-1-yl)-N-ethyl-2-(3-methoxyphenyl)acetamide]"
3,20.1 to 200,"CNC(=O)C(c1cccc(OC)c1)N1CCN(c2ccc(-c3cn[nH]c3)cc2)C1=O (single isomer, unassigned) [Example 291, 2-(3-(4-(1H-pyrazol-4-yl)phenyl)-2-oxoimidazolidin-1-yl)-2-(3-methoxyphenyl)-N-methylacetamide]"
4,2.1 to 20,"CNC(=O)C(c1cccc(OC)c1)N1CCN(c2ccc(-c3cn[nH]c3)cc2)C1=O (single isomer, unassigned) [Example 292, 2-(3-(4-(1H-pyrazol-4-yl)phenyl)-2-oxoimidazolidin-1-yl)-2-(3-methoxyphenyl)-N-methylacetamide]"
5,2.1 to 20,"COc1cccc(C(C(=O)NCC(C)C)N2CCN(c3ccc(-c4cn[nH]c4)cc3)C2=O)c1 (single isomer, unassigned) [Example 294, 2-(3-(4-(1H-pyrazol-4-yl)phenyl)-2-oxoimidazolidin-1-yl)-N-isobutyl-2-(3-methoxyphenyl)acetamide]"
6,20.1 to 200,"COc1cccc(C(C(N)=O)N2CCN(c3ccc(-c4cn[nH]c4)cc3)C2=O)c1 (single isomer, unassigned) [Example 295, 2-(3-(4-(1H-pyrazol-4-yl)phenyl)-2-oxoimidazolidin-1-yl)-2-(3-methoxyphenyl)acetamide]"
7,20.1 to 200,"COc1cccc(C(C(=O)NCC2CC2)N2CCN(c3ccc(-c4cn[nH]c4)cc3)C2=O)c1 (single isomer, unassigned) [Example 296, 2-(3-(4-(1H-pyrazol-4-yl)phenyl)-2-oxoimidazolidin-1-yl)-N-(cyclopropylmethyl)-2-(3-methoxyphenyl)acetamide]"
8,20.1 to 200,"CNC(=O)C(c1ccccc1)N1CCN(c2ccc(-c3cn[nH]c3)cc2)C1=O (single isomer, unassigned) [Example 299, 2-(3-(4-(1H-pyrazol-4-yl)phenyl)-2-oxoimidazolidin-1-yl)-N-methyl-2-phenylacetamide]"
9,2.1 to 20,"COc1cccc(C(C(=O)NC2CC2)N2CCN(c3ccc(-c4cn[nH]c4)cc3)C2=O)c1 (single isomer, unassigned) [Example 301, 2-(3-(4-(1H-pyrazol-4-yl)phenyl)-2-oxoimidazolidin-1-yl)-N-cyclopropyl-2-(3-methoxyphenyl)acetamide]"
10,2.1 to 20,"CNCC(c1cccc(OC)c1)N1CCN(c2ccc(-c3cn[nH]c3)cc2)C1=O (single isomer, unassigned) [Example 310, 1-(4-(1H-Pyrazol-4-yl)phenyl)-3-(1-(3-methoxyphenyl)-2-(methylamino)ethyl)imidazolidin-2-one]"
11,< 2,"COc1cccc(C(CO)n2ccn(-c3ccc(-c4cn[nH]c4)cc3)c2=O)c1 (single isomer, unassigned) [Example 324, 1-(4-(1H-Pyrazol-4-yl)phenyl)-3-(2-hydroxy-1-(3-methoxyphenyl)ethyl)-1H-imidazol-2(3H)-one]"
12,2.1 to 20,"COc1cccc(C(C)n2ccn(-c3ccc(-c4ccnc5[nH]ccc45)cc3)c2=O)c1 (single isomer, unassigned) [Example 326, 1-(4-(1H-Pyrrolo[2,3-b]pyridin-4-yl)phenyl)-3-(1-(3-methoxyphenyl)ethyl)-1H-imidazol-2(3H)-one]"
13,< 2,"COc1cccc(C(C)n2ccn(-c3ccc(-c4cn[nH]c4)cc3)c2=O)c1 (single isomer, unassigned) [Example 339, 1-(4-(1H-pyrazol-4-yl)phenyl)-3-(1-(3-methoxyphenyl)ethyl)-1H-imidazol-2(3H)-one]"
14,2.1 to 20,"CCc1cc(-n2ccn(C(C)c3cccc(OC)c3)c2=O)ccc1-c1cn[nH]c1 (single isomer, unassigned) [Example 353, 1-(3-ethyl-4-(1H-pyrazol-4-yl)phenyl)-3-(1-(3-methoxyphenyl)ethyl)-1H-imidazol-2(3H)-one]"
15,< 2,"COc1cccc(C(C)n2ccn(-c3ccc(-c4cn[nH]c4)cn3)c2=O)c1 (single isomer, unassigned) [Example 355, 1-(5-(1H-pyrazol-4-yl)pyridin-2-yl)-3-(1-(3-methoxyphenyl)ethyl)-1H-imidazol-2(3H)-one]"
